Measurements from ChEMBL document CHEMBL1255374, “Species distribution and in vitro antifungal susceptibility patterns of 75 clinical isolates of Fusarium spp. from northern Italy” (2008).
≈ marks a conversion by molar mass, not a printed value.

Columns and labels:
Assay type in all cases: functional
[1] = test system: Fusarium verticillioides; experiment: Antimicrobial activity against Fusarium verticillioides after 48 hrs by broth microdilution assay
[2] = test system: Fusarium solani; experiment: Antimicrobial activity against Fusarium solani after 48 hrs by broth microdilution assay
[3] = test system: Fusarium proliferatum; experiment: Antimicrobial activity against Fusarium proliferatum after 48 hrs by broth microdilution assay
[4] = test system: Fusarium oxysporum; experiment: Antimicrobial activity against Fusarium oxysporum after 48 hrs by broth microdilution assay
[5] = test system: Fusarium subglutinans; experiment: Antimicrobial activity against Fusarium subglutinans after 48 hrs by broth microdilution assay

**Q.** Which MIC [1] does the source give for `CC[C@@H]([C@H](C)O)n1ncn(-c2ccc(N3CCN(c4ccc(OC[C@@H]5CO[C@@](Cn6cncn6)(c6ccc(F)cc6F)C5)cc4)CC3)cc2)c1=O` [POSACONAZOLE] here?
**A.** Its MIC is 0.46 µg/mL (≈ 0.656 µM).

**Q.** And the MIC [2]?
**A.** The MIC was 15.2 µg/mL (≈ 21.7 µM).

**Q.** What about the MIC [3] of the same compound?
**A.** Its MIC is 6.4 µg/mL (≈ 9.13 µM).

**Q.** What about the MIC [4] of the same compound?
**A.** The MIC was 2.7 µg/mL (≈ 3.85 µM).

**Q.** What about the MIC [5] of the same compound?
**A.** The MIC was 10.8 µg/mL (≈ 15.3 µM).

**Q.** What does the source list for `CCC(C)n1ncn(-c2ccc(N3CCN(c4ccc(OCC5COC(Cn6cncn6)(c6ccc(Cl)cc6Cl)O5)cc4)CC3)cc2)c1=O` (stereo not given) [ITRACONAZOLE]?
**A.** MIC [1]: 3.33 µg/mL (≈ 4.72 µM); MIC [2]: > 16 µg/mL; MIC [3]: > 16 µg/mL; MIC [4]: > 16 µg/mL; MIC [5]: 10.8 µg/mL (≈ 15.3 µM)

**Q.** What does the source list for `C[C@@H](c1ncncc1F)[C@](O)(Cn1cncn1)c1ccc(F)cc1F` [VORICONAZOLE]?
**A.** MIC [1]: 1.74 µg/mL (≈ 4.98 µM); MIC [2]: 9.21 µg/mL (≈ 26.4 µM); MIC [3]: 4.2 µg/mL (≈ 12 µM); MIC [4]: 4 µg/mL (≈ 11.5 µM); MIC [5]: 5.6 µg/mL (≈ 16 µM)

**Q.** Which results are given for `C[C@@H]1[C@H](O)[C@@H](C)/C=C/C=C/C=C/C=C/C=C/C=C/C=C/[C@H](O[C@@H]2O[C@H](C)[C@@H](O)[C@H](N)[C@@H]2O)C[C@@H]2O[C@](O)(C[C@@H](O)C[C@@H](O)[C@H](O)CC[C@@H](O)C[C@@H](O)CC(=O)O[C@H]1C)C[C@H](O)[C@H]2C(=O)O` [AMPHOTERICIN B]?
**A.** MIC [1]: 1.53 µg/mL (≈ 1.66 µM); MIC [2]: 1.25 µg/mL (≈ 1.35 µM); MIC [3]: 1.7 µg/mL (≈ 1.84 µM); MIC [4]: 2.3 µg/mL (≈ 2.49 µM); MIC [5]: 3.3 µg/mL (≈ 3.57 µM)
